Experimental data taken from ChEMBL document CHEMBL4828736, “Discovery of ASTX029, A Clinical Candidate Which Modulates the Phosphorylation and Catalytic Activity of ERK1/2” (J Med Chem, 2021).
Values belong to the compound of their own block, whether it stands above or below them.

What was measured:
in vitro [1] = settings: CD1, mouse, microsomes
in vivo [2] = settings: BALB/c, mouse, po, 5 mg/kg
in vivo [3] = settings: BALB/c, mouse, po, 5 mg/kg; remark: listed apart in the source
in vitro [4] = settings: human, microsomes
physchem = settings: buffer, pH 7.4
A-375 = assay: cells; format: functional, cell-based; settings: Homo sapiens, A-375, 96 h
in vivo [5] = settings: BALB/c, mouse, iv, 0.5 mg/kg
in vivo [6] = settings: BALB/c, mouse, po, 5 mg/kg; remark: listed apart in the source
in vivo [7] = settings: BALB/c, mouse, iv, 0.5 mg/kg; remark: listed apart in the source
CYP3A4 = CYP3A4 (Homo sapiens, UniProt P08684); assay: in vitro; settings: recombinant enzyme
CYP3A4, sequence (P08684 whole entry): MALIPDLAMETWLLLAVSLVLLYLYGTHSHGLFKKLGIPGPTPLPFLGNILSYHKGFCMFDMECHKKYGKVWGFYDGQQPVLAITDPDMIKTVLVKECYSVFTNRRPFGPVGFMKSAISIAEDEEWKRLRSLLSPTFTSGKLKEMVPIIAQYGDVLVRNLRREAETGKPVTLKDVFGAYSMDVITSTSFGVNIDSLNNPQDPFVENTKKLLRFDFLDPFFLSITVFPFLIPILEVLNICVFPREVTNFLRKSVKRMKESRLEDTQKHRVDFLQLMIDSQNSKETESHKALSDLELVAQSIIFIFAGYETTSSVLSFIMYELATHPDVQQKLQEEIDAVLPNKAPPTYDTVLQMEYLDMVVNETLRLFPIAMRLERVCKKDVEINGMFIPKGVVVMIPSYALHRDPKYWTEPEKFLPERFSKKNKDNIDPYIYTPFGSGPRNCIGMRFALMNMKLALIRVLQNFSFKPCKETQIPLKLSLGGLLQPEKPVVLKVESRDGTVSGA

COLO 205 = assay: cells; format: functional, cell-based; settings: Homo sapiens, COLO 205, 96 h
in vivo [8] = settings: Beagle, dog, iv
in vivo [9] = settings: rat, po, 50 mg/kg
in vivo [10] = settings: rat, po, 100 mg/kg
in vivo [11] = settings: Beagle, dog, po, 0.5 mg/kg
in vivo [12] = settings: rat, po, 50 mg/kg; remark: listed apart in the source
in vivo [13] = settings: Beagle, dog, po, 0.5 mg/kg; remark: listed apart in the source
in vivo [14] = settings: rat, po, 100 mg/kg; remark: listed apart in the source
in vivo [15] = settings: rat, po, 1 mg/kg
in vivo [16] = settings: rat, po, 50 mg/kg; remark: listed apart in the source
in vivo [17] = settings: Beagle, dog, po, 0.5 mg/kg; remark: listed apart in the source
in vivo [18] = settings: rat, po, 50 mg/kg; remark: listed apart in the source
in vivo [19] = settings: rat, iv, 0.5 mg/kg
in vivo [20] = settings: rat, iv, 0.5 mg/kg; remark: listed apart in the source
in vivo [21] = settings: rat, po, 50 mg/kg; remark: listed apart in the source
in vivo [22] = settings: rat, po, 100 mg/kg; remark: listed apart in the source
in vivo [23] = settings: rat, po, 1 mg/kg; remark: listed apart in the source
in vivo [24] = settings: rat, po, 100 mg/kg; remark: listed apart in the source
in vivo [25] = settings: rat, po, 1 mg/kg; remark: listed apart in the source
in vivo [26] = settings: Beagle, dog, po, 0.5 mg/kg; remark: listed apart in the source
in vivo [27] = settings: rat, po, 1 mg/kg; remark: listed apart in the source
in vivo [28] = settings: Beagle, dog, iv; remark: listed apart in the source
in vivo [29] = settings: Beagle, dog, po, 0.5 mg/kg; remark: listed apart in the source
in vivo [30] = settings: rat, po, 100 mg/kg; remark: listed apart in the source
in vivo [31] = settings: rat, po, 1 mg/kg; remark: listed apart in the source

SMILES: Cc1cccc([C@@H](CO)NC(=O)[C@@H](C)N2Cc3ccc(-c4nc(NC5CCOCC5)ncc4Cl)cc3C2=O)c1
half-life at 40 min, 1 µM (in vitro [1]): 31 min | half-life at 40 min, 1 µM (in vitro [4]): 12 min | chromatographic logD (physchem): 3.9

SMILES: COc1cc(F)cc([C@@H](CO)NC(=O)[C@@H](C)N2Cc3ncc(-c4nc(NC5CCOCC5)ncc4Cl)cc3C2=O)c1
half-life at 24 h (in vivo [2]): 114 min | AUC at 24 h (in vivo [3]): 500 ng·h/mL | half-life at 40 min, 1 µM (CYP3A4): 23 min | half-life at 40 min, 1 µM (in vitro [4]): 36 min | chromatographic logD (physchem): 3.2 | clearance at 24 h (in vivo [5]): 37 mL/min/kg | IC50 (COLO 205): 8 nM | bioavailability at 24 h (in vivo [6]): 23% | Vd at 24 h (in vivo [7]): 1.9 L/kg

SMILES: COc1cc(F)cc([C@@H](CO)NC(=O)[C@@H](C)N2Cc3ccc(-c4nc(Nc5cnn(C)n5)ncc4Cl)cc3C2=O)c1
half-life at 40 min, 1 µM (in vitro [1]): 26 min | half-life at 24 h (in vivo [2]): 90 min | AUC at 24 h (in vivo [3]): 6400 ng·h/mL | half-life at 40 min, 1 µM (CYP3A4): 19 min | half-life at 40 min, 1 µM (in vitro [4]): 26 min | chromatographic logD (physchem): 3.7 | clearance at 24 h (in vivo [5]): 8.3 mL/min/kg | IC50 (COLO 205): 15 nM | bioavailability at 24 h (in vivo [6]): 64% | Vd at 24 h (in vivo [7]): 0.46 L/kg

SMILES: COc1cc(F)cc([C@@H](CO)NC(=O)[C@@H](C)N2Cc3ccc(-c4nc(N[C@@H](C)CO)ncc4Cl)cc3C2=O)c1
half-life at 24 h (in vivo [2]): 108 min | AUC at 24 h (in vivo [3]): 310 ng·h/mL | half-life at 40 min, 1 µM (CYP3A4): 29 min | half-life at 40 min, 1 µM (in vitro [4]): 28 min | chromatographic logD (physchem): 3.1 | clearance at 24 h (in vivo [5]): 23 mL/min/kg | bioavailability at 24 h (in vivo [6]): 9% | Vd at 24 h (in vivo [7]): 1.4 L/kg

SMILES: C[C@H](C(=O)N[C@H](CO)c1cc(F)cc(N2CCN(C)CC2)c1)N1Cc2ccc(-c3nc(NC4CCOCC4)ncc3Cl)cc2C1=O
AUC at 24 h (in vivo [3]): 18 ng·h/mL | half-life at 40 min, 1 µM (in vitro [4]): 51 min | chromatographic logD (physchem): 3.6 | clearance at 24 h (in vivo [5]): 124 mL/min/kg | Vd at 24 h (in vivo [7]): 3.8 L/kg

SMILES: COc1cc(F)cc([C@@H](CO)NC(=O)[C@@H](C)N2Cc3ccc(-c4nc(NC5CCOCC5)ncc4Cl)cc3C2=O)c1 [BEROTERKIB ANHYDROUS]
clearance at 24 h (in vivo [8]): 0.56 mL/min/kg | half-life at 24 h (in vivo [9]): 168 min | half-life at 24 h (in vivo [10]): 150 min | Cmax at 24 h (in vivo [11]): 3660 ng/mL | Tmax at 24 h (in vivo [12]): 120 min | half-life at 40 min, 1 µM (in vitro [1]): 46 min | AUC at 24 h (in vivo [13]): 12300 ng·h/mL | half-life at 24 h (in vivo [2]): 174 min | AUC at 24 h (in vivo [3]): 1600 ng·h/mL | Cmax at 24 h (in vivo [14]): 15700 ng/mL | half-life at 24 h (in vivo [15]): 90 min | bioavailability at 24 h (in vivo [16]): 35% | half-life at 40 min, 1 µM (in vitro [4]): 33 min | half-life at 24 h (in vivo [17]): 66 min | Cmax at 24 h (in vivo [18]): 2740 ng/mL | Vd at 24 h (in vivo [19]): 0.77 L/kg | chromatographic logD (physchem): 3.8 | clearance at 24 h (in vivo [20]): 18 mL/min/kg | AUC at 24 h (in vivo [21]): 17500 ng·h/mL | bioavailability at 24 h (in vivo [22]): > 100% | Cmax at 24 h (in vivo [23]): 25.8 ng/mL | clearance at 24 h (in vivo [5]): 22 mL/min/kg | AUC at 24 h (in vivo [24]): 118000 ng·h/mL | bioavailability at 24 h (in vivo [6]): 42% | Vd at 24 h (in vivo [7]): 0.68 L/kg | AUC at 24 h (in vivo [25]): 57.9 ng·h/mL | bioavailability at 24 h (in vivo [26]): 91% | Tmax at 24 h (in vivo [27]): 30 min | Vd at 24 h (in vivo [28]): 0.071 L/kg | Tmax at 24 h (in vivo [29]): 60 min | Tmax at 24 h (in vivo [30]): 120 min | bioavailability at 24 h (in vivo [31]): 6.1%

Second part, the compound after the results:

half-life at 40 min, 1 µM (in vitro [1]): 86 min | half-life at 24 h (in vivo [2]): 90 min | AUC at 24 h (in vivo [3]): 150 ng·h/mL | half-life at 40 min, 1 µM (in vitro [4]): 31 min | chromatographic logD (physchem): 3.3 | IC50 (A-375): 4 nM | clearance at 24 h (in vivo [5]): 54 mL/min/kg | bioavailability at 24 h (in vivo [6]): 10% | Vd at 24 h (in vivo [7]): 1.4 L/kg
SMILES: COc1cc(F)cc([C@@H](CO)NC(=O)CN2Cc3ccc(-c4nc(NC5CCOCC5)ncc4Cl)cc3C2=O)c1

half-life at 40 min, 1 µM (in vitro [1]): 49 min | half-life at 40 min, 1 µM (CYP3A4): < 5 min | half-life at 40 min, 1 µM (in vitro [4]): 23 min
SMILES: C[C@H](C(=O)N[C@H](CO)c1cc(F)cc(F)c1)N1Cc2ccc(-c3nc(NC4CCOCC4)ncc3Cl)cc2C1=O

half-life at 40 min, 1 µM (CYP3A4): 10 min | half-life at 40 min, 1 µM (in vitro [4]): 60 min
SMILES: C[C@H](C(=O)N[C@H](CO)c1cc(F)cc(OCCN(C)C)c1)N1Cc2ccc(-c3nc(NC4CCOCC4)ncc3Cl)cc2C1=O

half-life at 40 min, 1 µM (CYP3A4): 7.3 min | half-life at 40 min, 1 µM (in vitro [4]): 22 min
SMILES: COc1cc(F)cc([C@@H](CO)NC(=O)CN2C(=O)c3cc(-c4nc(NC5CCOCC5)ncc4Cl)ccc3[C@H]2C)c1

half-life at 24 h (in vivo [2]): 72 min | AUC at 24 h (in vivo [3]): 320 ng·h/mL | half-life at 40 min, 1 µM (CYP3A4): 49 min | half-life at 40 min, 1 µM (in vitro [4]): 62 min | chromatographic logD (physchem): 3.2 | clearance at 24 h (in vivo [5]): 17 mL/min/kg | IC50 (COLO 205): 15 nM | bioavailability at 24 h (in vivo [6]): 7% | Vd at 24 h (in vivo [7]): 1 L/kg
SMILES: COc1cc(F)cc([C@@H](CO)NC(=O)[C@@H](C)N2Cc3ccc(-c4ccnc(NC5CCOCC5)n4)cc3C2=O)c1
